Where two headings read alike, the source gives them in different places.
Legend:
[1] = test system: C5a-stimulated neutrophil enzyme release; assay: β-glucuronidase release from neutrophils stimulated by C5a; type: cell-based, human; settings: 100 nM C5a
Method: (§1) FIG. 8. The Effect of Ac-RRWWCR-NH2 (SEQ ID NO:1) on β-glucuronidase Release. Neutrophils pretreated with cytochalasin B were incubated with 100 nM IL-8 (●), 100 nM fMLP (▪), 100 nM C5a (_) or 100 nM leukotriene B4 ? or without any stimulant (◯) in the presence of increasing concentration of Ac-RRWWCR-NH2 (SEQ ID NO:1) for 30 min at 37° C. β-glucuronidase activity of supernatants were measured using phenolphthalein-glucuronic acid as substrate. Analysis of variance was used for multiple comparison.
(§2) Neutrophil enzyme release was studied by a modification of the method of Goldstein and colleagues (Goldstein et al., 1973). Cytochalasin B (Sigma Chemical Co.) was stored in dimethyl sulfoxide at a concentration of 5 mg/ml and was diluted to a concentration of 50 μg/ml in Hank's Balanced Salt Solution (HBSS) immediately before use. Cytochalasin B, 200 μl, was added to 1 ml of suspension of neutrophils, 6.25×10^6 cells/ml in HBSS, to achieve a final cytochalasin B concentration of […]. The solution was then incubated in 96 well plates at room temperature for 10 min. The stimulant, 100 μl, was added, and this cell suspension was incubated for 30 min at 37° C. The plates were centrifuged and 100 μl of supernatant was removed. […] After 16 hr incubation at 37° C., 200 μl of 0.2 M Glycine in 0.2 M NaCl, pH10.4 was added to each well and OD540 was measured as the enzyme activity.

[2] = Hs 294T culture, 100 μM peptide
Method: Analysis for the breakdown of Antileukinate in the culture of Hs 294T cells. A total concentration of tritium labeled and unlabeled Antileukinate of 100 μM, was added to the culture of Hs 294T cells. Aliquots of medium were removed at different times and chromatographed on an HPLC Bondapak C18 reversed phase column. The peptides were eluted using a gradient from 0.1% TFA to 80% acetonitrile in 0.1% TFA. One milliliter fractions were collected and measured for their radioactivity using a liquid scintillation counter. The chromatographs show the elution volume of the radioactivity at different times after addition to the cells.
Hs 294T and Hep G2 cells, 2×10^4 cell/well, were cultured in 24 well tissue culture plates for 24 hr. Then the culture media were replaced with media containing tritiated Antileukinate, 0.2 μCi, mixed with 100 μM unlabeled peptide in each well. The cells were then cultured for the indicated periods. The supernatants were collected and stored at −70° C. until use. The breakdown of Antileukinate during the cell culture was analyzed on high performance liquid chromatography (HPLC) using an analytical C18 reversed phase column (Waters Co., New Bedford, Mass.). […] One milliliter fractions were collected and measured for their radioactivity content using a liquid scintillation counter.

[3] = molecular target: T1, MIP-1α binding to human neutrophils (Homo sapiens, UniProt P32246); assay: Binding of radiolabeled MIP-1α to human neutrophils
T1 construct: endogenous in cells; host or cells: human neutrophils

[4] = test system: DU145 (adenocarcinoma of prostate); assay: Growth of DU145, MTT assay; type: cell-based; settings: DU145, serum-starved, 24 hours
Method: FIG. 18. The effect of Antileukinate on growth of DU145 (adenocarcinoma of prostate) cell line. Serum-starved DU145 were incubated with the indicated concentrations of Antileukinate for 24 hours. MTT assay was then performed. Cell umber was decreased in a dose-dependent manner and there are significant differences from controls at concentrations greater than, or equal to 100 μM of Antileukinate (p<0.05).

[5] = molecular target: T2, leukotriene B4 binding to human neutrophils (Homo sapiens, UniProt Q15722); assay: Binding of 3H-leukotriene B4 to human neutrophils; settings: 100 μM peptide; 0.4 nM 3H-labeled leukotriene B4
T2 construct: endogenous in cells; host or cells: human blood neutrophils
From the text: To examine the specificity of Ac-RRWWCR-NH2 (SEQ ID NO:1) on ligand-receptor binding, the inventors tested whether the peptide reduced the binding of human ^125I-C5a or ^3H-leukotriene B4 to human neutrophils.
Recombinant human fifth component of complement (C5a) (Sigma Chemical Co., St. Louis, Mo.) was radioiodinated enzymatically using Enzymobead (Bio Rad, Richmond, Calif.). Tritiated leukotriene B4 was purchased from Du Pont Co., Wilmington, Del. Binding assays for C5a and leukotriene B4 were performed as described for IL-8 binding in Example I, except that the buffers used were PBS containing 1 mM CaCl2, 0.5 mM MgCl2, 0.5% BSA, and HBSS containing 0.1% ovulabumin and 10 mM HEPES (pH7.3), respectively, as previously described (Braunwalder et al., 1992; Sherman et al., 1988). The radioactivity was measured with liquid scintillation counter for the leukotriene B4 assay. The binding of both ligands were saturable and inhibited by the non-labeled agonists in dose dependent manners.

[6] = test system: RPMI-7951; settings: 16 hr
Method: (§3) The cell lines (4×10^5 cells/well) in RPMI-1640 medium containing 10% fetal bovine serum were incubated with 10 μCi of Na2^51CrO4 (DuPont NEN Co.) for 60 min at 37° C. in a 24 well tissue culture plate. The cells were washed 3 times and then incubated in cell culture medium for 30 min at 37° C. to allow spontaneous lysis of marginally viable cells. […] The cells were cultured for 16 hr at 37° C. and then the radioactivity in the supernatants was counted in a gamma radiation spectrometer. Quadriplicate wells received cell culture medium alone or 2% SDS to determine spontaneous and maximum release, respectively. The percentage lysis was calculated by using the following formula: [formula]

[7] = test system: Hs 294T; settings: 16 hr
Method: as §3

[8] = test system: fMLP-stimulated neutrophil enzyme release; assay: β-glucuronidase release from neutrophils stimulated by fMLP; type: cell-based, human; settings: 100 nM fMLP
Method: as §1, §2

[9] = test system: Hep G2; settings: 16 hr
Method: as §3

[10] = test system: Hs 294T melanoma cells; assay: Cell growth assay, Hs 294T; type: cell-based, human
Method: FIG. 15A. The effect of Antileukinate on the growth of melanoma cells. Melanoma cell lines and a control liver cancer cell line (2×10^4 cells/well) in 500 μl were cultured in a 24 well tissue culture plate in the presence of various concentrations of Antileukinate for 3 d. The culture media were changed to fresh media containing the same concentration of Antileukinate every 24 hr during the incubation period. After incubation, the cells were collected and the cell number was counted using a hemocytometer. Hs 294 T cell line. Analysis of variance was used for multiple comparison.
The cell lines (2×10^4 cells/well) in 500 μl cell culture medium were grown in 24 well tissue culture plates. After the cells adhered to the plate, the supernatants were aspirated and 500 μl of media containing various concentrations of Antileukinate were added to the wells. The cells were cultured for period indicated in the text. The culture media were changed to fresh media every 24 hr. After incubation, the cells were detached with trypsin-EDTA solution (Life Technologies Inc., Gaithersburg, Md., containing 0.05% of trypsin and 0.53 mM of EDTA in Hanks Balanced Salt Solution without Ca^2+ and Mg^2+) and the cell number was counted using a hemocytometer.

T1 sequence (P32246 whole entry): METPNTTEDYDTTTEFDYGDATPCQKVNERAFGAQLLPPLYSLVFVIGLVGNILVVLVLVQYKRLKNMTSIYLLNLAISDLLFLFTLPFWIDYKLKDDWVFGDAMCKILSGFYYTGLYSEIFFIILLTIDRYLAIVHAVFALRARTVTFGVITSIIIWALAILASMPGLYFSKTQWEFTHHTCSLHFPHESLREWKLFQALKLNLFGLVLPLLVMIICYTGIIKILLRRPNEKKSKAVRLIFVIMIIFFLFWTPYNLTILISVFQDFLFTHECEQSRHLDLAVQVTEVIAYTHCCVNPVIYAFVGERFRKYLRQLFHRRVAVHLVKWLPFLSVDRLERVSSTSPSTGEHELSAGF
T2 sequence (Q15722 whole entry): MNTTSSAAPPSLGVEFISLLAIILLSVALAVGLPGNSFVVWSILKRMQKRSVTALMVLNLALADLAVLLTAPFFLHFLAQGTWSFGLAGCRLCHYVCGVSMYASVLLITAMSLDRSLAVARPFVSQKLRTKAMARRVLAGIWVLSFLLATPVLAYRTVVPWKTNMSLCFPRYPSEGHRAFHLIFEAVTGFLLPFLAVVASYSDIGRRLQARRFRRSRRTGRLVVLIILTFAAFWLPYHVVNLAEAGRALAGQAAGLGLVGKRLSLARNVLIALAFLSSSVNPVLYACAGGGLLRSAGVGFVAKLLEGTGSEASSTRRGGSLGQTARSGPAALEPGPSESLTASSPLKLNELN

RRWWCR [Ac-RRWWCR-NH2]
effect on enzyme release stimulated by C5a [1]: did not affect the enzyme release
time within which the peptide is substantially eliminated from the culture [2]: ≤ 24 h
decrease of the major radioactivity peak (intact peptide) ([2]; after 24 hr): more than 85%
effect on binding of radiolabeled MIP-1α [3]: did not affect the binding
concentrations with significant difference in cell number from controls (p<0.05) [4]: ≥ 100 µM
effect on binding of leukotriene B4 to neutrophils [5]: did not affect the binding
% cell lysis ([6]; RPMI-7951, 1 μM peptide): −0.8 ± 2.2%
% cell lysis ([6]; RPMI-7951, 5 μM peptide): −2.6 ± 3.7%
% cell lysis ([6]; RPMI-7951, 20 μM peptide): −3.4 ± 6.3%
% cell lysis ([6]; RPMI-7951, 100 μM peptide): 6.8 ± 11.1%
% cell lysis ([7]; 1 μM peptide): −4.0 ± 5.2%
% cell lysis ([7]; 5 μM peptide): −3.2 ± 7.2%
% cell lysis ([7]; 20 μM peptide): −1.6 ± 3.7%
% cell lysis ([7]; 100 μM peptide): 2.4 ± 7.9%
effect on enzyme release stimulated by fMLP [8]: did not affect the enzyme release
% cell lysis ([9]; Hep G2, 1 μM peptide): −2.1 ± 7.5%
% cell lysis ([9]; Hep G2, 5 μM peptide): −0.8 ± 8.3%
% cell lysis ([9]; Hep G2, 20 μM peptide): 5.8 ± 8.3%
% cell lysis ([9]; Hep G2, 100 μM peptide): 0.9 ± 2.9%
cell growth at 100 μM peptide ([10]; 100 μM): suppressed the cell growth almost completely
peptide concentration significantly inhibiting growth ([10]; 72 hr): 10 µM
EC50 ([10]; 72 hr, medium changed every 24 hr, read-out: ED50, cell growth inhibition): 18 µM
